System: human hepatocytes
Test: Estimation of covalent binding of small molecules to proteins in hepatocytes (fCVB)
Format: in vitro ADME
Settings: binding of 3H- or 14C-labelled compound to cryopreserved human hepatocytes
Experimental: Estimation of Covalent Binding of Small Molecules to Proteins in Hepatocytes:
The assay is based on the modification of a published method (Day, S. H.; Mao, A.; White, R.; Schulz-Utermoehl, T.; Miller, R.; Beconi, M. G. (2005) A semi-automated method for measuring the potential for protein covalent binding in drug discovery. J. Pharmacol. Toxicol. Methods 52, 278-285.). Briefly, cryopreserved human hepatocytes are incubated in the presence of radiolabeled drug candidate in 24-well plates for a pre-determined period to allow sufficient turnover of the parent compound. Following the incubation period, samples are taken out and quenched by cold acetone in order to facilitate precipitation of proteins. […] After solubilization of proteins collected on filter papers, radioactive content and amount of protein is determined to give an estimate of pmol equivalent drug molecule bound per mg protein. In addition to assessing the extent of covalent binding, the turnover of the parent drug is quantified to give an estimate of fraction of metabolites leading to covalent binding (fCVB).
One aspect of the metabolic profile is the formation of reactive metabolites, where compounds of this invention in general are less prone to form such reactive metabolites. […] An fCVB value can then be calculated.

SMILES | fCVB value (fraction of metabolites leading to covalent binding)
COc1ccc(-c2nnc(C(=O)N3CC(Oc4ccc(CN5CC6(CCOC6)C5)cc4)C3)o2)cc1 [Example 5, (3-(4-(6-oxa-2-azaspiro[3.4]octan-2-ylmethyl)phenoxy)azetidin-1-yl)(5-(4-methoxyphenyl)-1,3,4-oxadiazol-2-yl)methanone] | 0.0069

Target: Melanin Concentrating Hormone Receptor 1 (MCHR1) (Homo sapiens (Human), UniProt Q99705)
Test: MCHR1 receptor activation assay (GTPγ35S)
Format: biochemical
Settings: not given

Chain of Melanin Concentrating Hormone Receptor 1 (MCHR1) (Q99705 whole entry): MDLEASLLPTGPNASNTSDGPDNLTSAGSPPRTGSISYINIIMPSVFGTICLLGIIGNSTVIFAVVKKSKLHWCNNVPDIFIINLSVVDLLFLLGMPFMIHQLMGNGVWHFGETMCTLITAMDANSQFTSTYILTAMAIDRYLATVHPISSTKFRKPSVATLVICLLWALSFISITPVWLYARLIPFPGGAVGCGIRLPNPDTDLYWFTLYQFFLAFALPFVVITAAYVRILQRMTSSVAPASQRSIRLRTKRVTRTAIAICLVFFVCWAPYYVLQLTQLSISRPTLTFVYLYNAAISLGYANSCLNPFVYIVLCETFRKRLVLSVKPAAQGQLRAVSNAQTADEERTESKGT

SMILES | IC50 [nM]
COc1ccc(-c2nnc(C(=O)N3CC(Oc4ccc(CN5CC6(CCOC6)C5)cc4)C3)o2)cc1 [Example 5, (3-(4-(6-oxa-2-azaspiro[3.4]octan-2-ylmethyl)phenoxy)azetidin-1-yl)(5-(4-methoxyphenyl)-1,3,4-oxadiazol-2-yl)methanone] | 19
O=C(c1nnc(-c2ccccc2)o1)N1CC(Oc2ccc(CN3CCCC34CCOC4)cc2)C1 (centres unmarked) [Example 15, (3-(4-(7-oxa-1-azaspiro[4.4]nonan-1-ylmethyl)phenoxy)azetidin-1-yl)(5-phenyl-1,3,4-oxadiazol-2-yl)methanone] | 58
COc1cc(CN2CCCC23COC3)ccc1OC1CN(C(=O)c2nnc(-c3ccc(C(F)F)cc3)o2)C1 [Example 18, (3-(4-(2-oxa-5-azaspiro[3.4]octan-5-ylmethyl)-2-methoxyphenoxy)azetidin-1-yl)(5-(4-(difluoromethyl)phenyl)-1,3,4-oxadiazol-2-yl)methanone] | 150
COc1cc(CN2CCCC23COC3)ccc1OC1CN(C(=O)c2nnc(-c3ccccc3)o2)C1 [Example 17, (3-(4-(2-oxa-5-azaspiro[3.4]octan-5-ylmethyl)-2-methoxyphenoxy)azetidin-1-yl)(5-phenyl-1,3,4-oxadiazol-2-yl)methanone] | 420
O=C(c1nnc(-c2ccccc2)o1)N1CC(Oc2ccc(CN3CCCC34COC4)cc2)C1 [Example 13, (3-(4-(2-oxa-5-azaspiro[3.4]octan-5-ylmethyl)phenoxy)azetidin-1-yl)(5-phenyl-1,3,4-oxadiazol-2-yl)methanone] | 70

Other lines, results leading:

IC50 [nM] | SMILES
23 | COc1ccc(-c2nnc(C(=O)N3CC(Oc4ccc(CN5CCCC56CCOC6)cc4)C3)o2)cc1 (centres unmarked) [Example 14, (3-(4-(7-oxa-1-azaspiro[4.4]nonan-1-ylmethyl)phenoxy)azetidin-1-yl)(5-(4-methoxyphenyl)-1,3,4-oxadiazol-2-yl)methanone]
15 | Cc1cc(OC2CN(C(=O)c3nnc(-c4ccccc4)o3)C2)ccc1CN1CC2(CCCO2)C1 [Example 11, (3-(4-(5-oxa-2-azaspiro[3.4]octan-2-ylmethyl)-3-methylphenoxy)azetidin-1-yl)(5-phenyl-1,3,4-oxadiazol-2-yl)methanone]
34 | COc1cc(OC2CN(C(=O)c3nnc(-c4ccccc4)o3)C2)ccc1CN1CCCC12COC2 [Example 16, (3-(4-(2-oxa-5-azaspiro[3.4]octan-5-ylmethyl)-3-methoxyphenoxy)azetidin-1-yl)(5-phenyl-1,3,4-oxadiazol-2-yl)methanone]
15 | Cc1cc(OC2CN(C(=O)c3nnc(-c4ccccc4)o3)C2)ccc1CN1CC2(CCOC2)C1 [Example 9, (3-(4-(6-oxa-2-azaspiro[3.4]octan-2-ylmethyl)-3-methylphenoxy)azetidin-1-yl)(5-phenyl-1,3,4-oxadiazol-2-yl)methanone]
18 | Cc1cc(OC2CN(C(=O)c3nnc(-c4ccccc4)o3)C2)ccc1CN1CCC2(CCOC2)C1 (centres unmarked) [Example 10, (3-(4-(2-oxa-7-azaspiro[4.4]nonan-7-ylmethyl)-3-methylphenoxy)azetidin-1-yl)(5-phenyl-1,3,4-oxadiazol-2-yl)methanone]
38 | COc1cc(OC2CN(C(=O)c3nnc(-c4ccc(C(F)F)cc4)o3)C2)ccc1CN1CCCC12COC2 [Example 19, (3-(4-(2-oxa-5-azaspiro[3.4]octan-5-ylmethyl)-3-methoxyphenoxy)azetidin-1-yl)(5-(4-(difluoromethyl)phenyl)-1,3,4-oxadiazol-2-yl)methanone]
23 | O=C(c1nnc(-c2ccccc2)o1)N1CC(Oc2ccc(CN3CCC4(CCCO4)C3)cc2)C1 (centres unmarked) [Example 22, (3-(4-(1-Oxa-7-azaspiro[4.4]nonan-7-ylmethyl)phenoxy)azetidin-1-yl)(5-phenyl-1,3,4-oxadiazol-2-yl)methanone]
19 | O=C(c1nnc(-c2ccccc2)o1)N1CC(Oc2ccc(CN3CCC4(CCOC4)C3)cc2)C1 (centres unmarked) [Example 6, (3-(4-(2-oxa-7-azaspiro[4.4]nonan-7-ylmethyl)phenoxy)azetidin-1-yl)(5-phenyl-1,3,4-oxadiazol-2-yl)methanone]

Reference: US8685958B2, “Therapeutic agents” (AstraZeneca AB, priority 2011, dated 2014)
